This is an account of results in PubChem BioAssay (NCI).

Among the test systems are 786-0 renal; ACHN renal; EKVX NSCLC; HL-60(TB) leukemia; HOP-62 NSCLC; MCF7 breast; OVCAR-4 ovarian; OVCAR-5 ovarian; PC-3 prostate; SK-OV-3 ovarian; UO-31 renal.
What all share (experiment): inhibition of tumour cell growth, NCI panel, 48 h

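Step 1: Grow cells in 96-well plates. Step 2: Expose to compound for 48 hours at 5 concentrations. Step 3: Interpolate endpoints linearly; if unreached, use highest concentration. The concentration for full growth arrest is given as TGI.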

On to `O=C(CCCN1CCC(Nc2ccc(F)cc2)(c2nnnn2C2CCCCC2)CC1)c1ccc(F)cc1`, for which the TGI was found to be 37.1 µM with 786-0 renal; 28.6 µM with ACHN renal; 35.4 µM in the assay with EKVX NSCLC; 40.4 µM in the assay on HL-60(TB) leukemia; 33.6 µM in the assay with HOP-62 NSCLC; 33.1 µM with MCF7 breast. The TGI was found to be 25.5 µM in the assay with OVCAR-4 ovarian; 29.7 µM in the assay on OVCAR-5 ovarian; 51.8 µM in the assay with PC-3 prostate; 11.5 µM in the assay with SK-OV-3 ovarian; 28.4 µM with UO-31 renal.

For the compound `COc1ccc(C2=Nn3c(C)nnc3S/C2=C\c2ccc(-c3ccc([N+](=O)[O-])cc3)o2)cc1`, the TGI was 22 µM in the assay on 786-0 renal; 25.3 µM in the assay with ACHN renal; 82.9 µM in the assay on EKVX NSCLC; 73.5 µM in the assay with HL-60(TB) leukemia; greater than 100 µM with HOP-62 NSCLC; 88.7 µM in the assay on MCF7 breast. Also, the TGI in the assay on OVCAR-4 ovarian is greater than 100 µM; in the assay with OVCAR-5 ovarian, 43 µM; in the assay on PC-3 prostate it was 59.5 µM; in the assay with SK-OV-3 ovarian, greater than 100 µM; with UO-31 renal, 29.8 µM.

`CCCCCC(=O)OC[n+]1ccc(-c2c(COC(=O)NC(C)C)c(COC(=O)NC(C)C)c3n2CCC3)cc1`: the TGI was greater than 100 µM in the assay on 786-0 renal; greater than 100 µM in the assay on ACHN renal; greater than 100 µM in the assay on EKVX NSCLC; 96.8 µM in the assay on HL-60(TB) leukemia; greater than 100 µM in the assay on HOP-62 NSCLC; greater than 100 µM with MCF7 breast. Also, the TGI in the assay with OVCAR-4 ovarian, in the assay on OVCAR-5 ovarian, in the assay on PC-3 prostate, in the assay with SK-OV-3 ovarian and in the assay with UO-31 renal was greater than 100 µM each time.
